Data as given in publication PMC3433276 (Bioorganic & medicinal chemistry letters, 2012).

How the values were obtained:
[1] = system: panel of multidrug-resistant HIV-1 strains; assay: microbe, parasite or virus in culture; format: cell-based; conditions: for fold-changes in EC50: against all MDR HIV-1 viruses compared to wild type
[2] = system: HIV-1LAI; assay: Antiviral MTT assay in MT-2 cells exposed to HIV-1LAI; format: cell-based; conditions: Human immunodeficiency virus 1, MT2

COC(=O)N[C@@H]1CO[C@@H]2C[C@H](OC(=O)N[C@@H](Cc3ccccc3)[C@H](O)CN(CC(C)C)S(=O)(=O)c3ccc(OC)cc3)C[C@H]12 [Inhibitor 3c]
fold-changes in EC50 [1]: < 3

COC(=O)N[C@H]1CO[C@@H]2C[C@H](OC(=O)N[C@@H](Cc3ccccc3)[C@H](O)CN(CC(C)C)S(=O)(=O)c3ccc(OC)cc3)C[C@H]12 [Inhibitor 3d]
EC50 ([1]; Human immunodeficiency virus 1): 0.015 to 0.024 µM | fold-changes in EC50 [1]: increased by a factor of at least three

CC(C)CN(C[C@@H](O)[C@H](Cc1ccccc1)NC(=O)O[C@H]1CCOC1)S(=O)(=O)c1ccc(N)cc1 [amprenavir]
IC50 [2]: 0.03 µM
